Results reported in patent publication US7435736B2, “Substituted 1-piperidin-4-yl-4-azetidin-3-yl-piperazine derivatives and their use as neurokinin antagonists” (Janssen Pharmaceutica, N.V., priority 2002, dated 2008).

Columns and labels:
[1] = test system: dopamine release; details: frontal cortex vs striatum; cited from earlier work
[2] = test system: acute emesis; details: administered together with dexamethasone and 5-HT3 antagonists; cited from earlier work
[3] = test system: cisplatin-induced emesis; details: acute and delayed phase, animals; cited from earlier work
[4] = target: h-NK1 (Homo sapiens, UniProt P25103); test: Signal transduction (ST), intracellular Ca++ FLIPR, NK1 antagonistic activity; format: cell-based; details: read-out: pIC50 h-NK1 (converted)
Sequence of h-NK1 (P25103 whole entry): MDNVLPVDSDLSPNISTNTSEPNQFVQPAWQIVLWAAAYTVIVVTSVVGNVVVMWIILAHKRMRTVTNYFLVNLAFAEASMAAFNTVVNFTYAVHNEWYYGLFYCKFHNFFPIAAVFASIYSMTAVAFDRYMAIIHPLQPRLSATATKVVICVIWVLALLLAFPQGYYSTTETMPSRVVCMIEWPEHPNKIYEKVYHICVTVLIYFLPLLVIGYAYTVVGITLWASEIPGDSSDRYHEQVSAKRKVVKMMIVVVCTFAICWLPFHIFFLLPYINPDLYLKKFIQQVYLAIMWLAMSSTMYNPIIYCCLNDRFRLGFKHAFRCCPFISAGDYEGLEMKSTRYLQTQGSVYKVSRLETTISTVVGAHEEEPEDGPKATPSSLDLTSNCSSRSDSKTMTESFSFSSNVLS
Experimental: (§1) This test evaluates in vitro functional NK1, NK2 and NK3 antagonistic activity. For the measurements of intracellular Ca^++ concentrations the cells were grown on 96-well (black wall/transparent bottom) plates from Costar for 2 days until they reached confluence. The cells were loaded with 2 μM Fluo3 in DMEM containing 0.1% BSA and 2.5 mM probenecid for 1 h at 37° C. They were washed 3× with a Krebs buffer (140 mM NaCl, 1 mM MgCl2×6H2O, 5 mM KCl, 10 mM glucose, 5 mM HEPES; 1.25 mM CaCl2; pH 7.4) containing 2.5 mM probenecid and 0.1% BSA (Ca^++-buffer). The cells were preincubated with a concentration range of antagonists for 20 min at RT and Ca^++-signals after addition of the agonists were measured in a Fluorescence Image Plate Reader (FLIPR from Molecular Devices, Crawley, England). The peak of the Ca^++-transient was considered as the relevant signal and the mean values of corresponding wells were analysed as described below.
(§2) The sigmoidal dose response curves were analysed by computerised curve-fitting, using the GraphPad Program. The EC50-value of a compound is the effective dose showing 50% of maximal effect. For mean curves the response to the agonist with the highest potency was normalised to 100%. For antagonist responses the IC50-value was calculated using non-linear regression. […]

[5] = target: T1, h-NK3 (Homo sapiens, UniProt P29371); test: Signal transduction (ST), intracellular Ca++ FLIPR, NK3 antagonistic activity; format: cell-based; details: read-out: pIC50 h-NK3 (converted)
T1 sequence (P29371 1-465): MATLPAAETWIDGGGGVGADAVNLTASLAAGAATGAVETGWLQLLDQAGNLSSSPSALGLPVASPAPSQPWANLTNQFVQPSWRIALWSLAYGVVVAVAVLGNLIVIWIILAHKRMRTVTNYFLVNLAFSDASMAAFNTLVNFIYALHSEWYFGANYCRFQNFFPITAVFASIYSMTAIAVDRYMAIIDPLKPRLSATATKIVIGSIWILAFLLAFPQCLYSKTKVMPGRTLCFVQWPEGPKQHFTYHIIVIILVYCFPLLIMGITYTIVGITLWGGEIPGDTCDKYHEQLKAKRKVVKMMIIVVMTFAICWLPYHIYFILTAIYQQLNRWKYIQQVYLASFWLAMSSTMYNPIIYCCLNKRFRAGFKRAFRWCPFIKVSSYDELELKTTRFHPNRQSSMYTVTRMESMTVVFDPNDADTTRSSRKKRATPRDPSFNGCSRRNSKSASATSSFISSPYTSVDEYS
Experimental: as §1, §2

[6] = target: T2, h-NK2 (Homo sapiens, UniProt P21452); test: Signal transduction (ST), intracellular Ca++ FLIPR, NK2 antagonistic activity; format: cell-based; details: read-out: pIC50 h-NK2 (converted)
T2 sequence (P21452 1-398): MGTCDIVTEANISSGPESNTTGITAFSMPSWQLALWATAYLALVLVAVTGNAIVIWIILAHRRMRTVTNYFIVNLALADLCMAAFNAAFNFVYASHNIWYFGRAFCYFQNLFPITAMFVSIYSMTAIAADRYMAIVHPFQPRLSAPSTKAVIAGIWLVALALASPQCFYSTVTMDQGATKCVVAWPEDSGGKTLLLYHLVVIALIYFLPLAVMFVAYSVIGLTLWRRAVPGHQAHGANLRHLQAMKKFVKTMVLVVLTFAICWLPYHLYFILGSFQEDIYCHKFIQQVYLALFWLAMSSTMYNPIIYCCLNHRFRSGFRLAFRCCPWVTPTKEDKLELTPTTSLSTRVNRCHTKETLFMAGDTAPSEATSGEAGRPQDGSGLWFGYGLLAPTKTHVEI
Experimental: as §1, §2

[7] = test system: NK1 agonist-induced vocalisation response; details: guinea-pigs; cited from earlier work
[8] = test system: schizophrenic patients; details: without affecting negative symptoms; cited from earlier work
[9] = test system: major depression; details: data not conclusive due to high placebo response rate; cited from earlier work
[10] = test system: chemotherapy- and radiation-induced sickness in cancer patients; details: cited from earlier work; for reduction of the development of delayed emesis: >24 h; for control of the acute emetic phase: first 24 h, either or not associated with dexamethasone

SMILES	IC50 [4] [nM]	IC50 [5] [nM]	IC50 [6] [nM]	also measured
COc1ccc(-n2nnnc2C(F)(F)F)cc1CN[C@H]1CCCN[C@H]1c1ccccc1 [(S)-GR205,171]	–	–	–	dopamine release [1]: enhance dopamine release in the frontal cortex but not in the striatum
COc1ccc(C(C)C)cc1CN[C@H]1C2CCN(CC2)[C@H]1C(c1ccccc1)c1ccccc1 [CJ-11,974, Ezlopitant]	–	–	–	prevention of acute emesis [2]: additional effects
COc1ccccc1CN[C@H]1CCCN[C@H]1c1ccccc1 [CP-99,994]	–	–	–	inhibition of cisplatin-induced emesis [3]: inhibit not only the acute but also the delayed phase
O=C(c1ccccc1)N1CC(N2CCN(C3CCN(C(=O)c4cc(C(F)(F)F)cc(C(F)(F)F)c4)C(Cc4ccccc4)C3)CC2)C1 (stereo not drawn) [Compound 3]	19.5	–	–	–
O=C(c1cccnc1)N1CC(N2CCN([C@H]3CCN(C(=O)c4cc(C(F)(F)F)cc(C(F)(F)F)c4)[C@H](Cc4ccccc4)C3)CC2)C1 [Compound 6]	49	–	–	–
O=C(c1ccsc1)N1CC(N2CCN(C3CCN(C(=O)c4cc(C(F)(F)F)cc(C(F)(F)F)c4)C(Cc4ccccc4)C3)CC2)C1 (stereo not drawn) [Compound 8]	204	–	–	–
O=C(c1ccoc1)N1CC(N2CCN([C@H]3CCN(C(=O)c4cc(C(F)(F)F)cc(C(F)(F)F)c4)[C@H](Cc4ccccc4)C3)CC2)C1 [Compound 9]	55	–	–	–
CC(C)(C)OC(=O)NC(C)(C)C(=O)N1CC(N2CCN([C@H]3CCN(C(=O)c4cc(C(F)(F)F)cc(C(F)(F)F)c4)[C@H](Cc4ccccc4)C3)CC2)C1 [Compound 13]	33.9	≥ 10000	≥ 10000	–
CC(C(=O)N1CC(N2CCN([C@H]3CCN(C(=O)c4cc(C(F)(F)F)cc(C(F)(F)F)c4)[C@H](Cc4ccccc4)C3)CC2)C1)c1ccccc1 (stereo partly drawn) [Compound 14]	22.9	631	3980	–
O=C(c1cc(C(F)(F)F)cc(C(F)(F)F)c1)N1CCC(N2CCN(C3CN(S(=O)(=O)c4cccs4)C3)CC2)CC1Cc1ccccc1 (stereo not drawn) [Compound 15]	32.4	1230	5500	–
Cc1nnsc1C(=O)N1CC(N2CCN([C@H]3CCN(C(=O)c4cc(C(F)(F)F)cc(C(F)(F)F)c4)[C@H](Cc4ccccc4)C3)CC2)C1 [Compound 16]	7.41	4900	≥ 10000	–
CC(C)(C)C(=O)N1CC(N2CCN([C@H]3CCN(C(=O)c4cc(C(F)(F)F)cc(C(F)(F)F)c4)[C@H](Cc4ccccc4)C3)CC2)C1 [Compound 17]	11	5500	≥ 10000	–
O=C(c1cc(C(F)(F)F)cc(C(F)(F)F)c1)N1CCC(N2CCN(C3CN(c4cnccn4)C3)CC2)CC1Cc1ccccc1 (stereo not drawn) [Compound 19]	45.7	≥ 10000	≥ 10000	–
CC(C)(C)OC(=O)N1CCC[C@@H]1C(=O)N1CC(N2CCN([C@H]3CCN(C(=O)c4cc(C(F)(F)F)cc(C(F)(F)F)c4)[C@H](Cc4ccccc4)C3)CC2)C1 [Compound 22]	37.2	1820	5500	–
FC(F)(F)c1cc(CO[C@H]2CCCN[C@H]2c2ccccc2)cc(C(F)(F)F)c1 [L-733,060]	–	–	–	antagonism of NK1 agonist-induced vocalisation response [7]: antagonised
CC(=O)N(C)C1(c2ccccc2)CCN(CCC[C@]2(c3ccc(Cl)c(Cl)c3)CCCN(C(=O)c3ccccc3)C2)CC1 [SR142801]	–	–	–	antipsychotic activity [8]: antipsychotic activity
C[C@@H](O[C@H]1OCCN(Cc2n[nH]c(=O)[nH]2)[C@H]1c1ccc(F)cc1)c1cc(C(F)(F)F)cc(C(F)(F)F)c1 [aprepitant]	–	–	–	inhibition of cisplatin-induced emesis [3]: inhibit not only the acute but also the delayed phase; prevention of acute emesis [2]: additional effects; antidepressant effects [9]: antidepressant effects
CNCCC(Oc1ccc(C(F)(F)F)cc1)c1ccccc1 (stereo not drawn) [fluoxetine]	–	–	–	antagonism of NK1 agonist-induced vocalisation response [7]: antagonised
CN1C2CCCC1CC(NC(=O)c1nn(C)c3ccccc13)C2 (stereo not drawn) [granisetron]	–	–	–	reduction of the development of delayed emesis [10]: poor efficacy; control of the acute emetic phase [10]: effective
CN(C)CCCN1c2ccccc2CCc2ccccc21 [imipramine]	–	–	–	antagonism of NK1 agonist-induced vocalisation response [7]: antagonised
Cc1nccn1CC1CCc2c(c3ccccc3n2C)C1=O (stereo not drawn) [ondansetron]	–	–	–	reduction of the development of delayed emesis [10]: poor efficacy; control of the acute emetic phase [10]: effective

More lines, main results first:

IC50 [4] [nM]	IC50 [5] [nM]	IC50 [6] [nM]	SMILES	also measured
123	–	–	O=C(c1cc(C(F)(F)F)cc(C(F)(F)F)c1)N1CCC(N2CCN(C3CNC3)CC2)CC1Cc1ccccc1 (stereo not drawn) [Compound 2]	–
45.7	–	–	N#Cc1cccc(C(=O)N2CC(N3CCN([C@H]4CCN(C(=O)c5cc(C(F)(F)F)cc(C(F)(F)F)c5)[C@H](Cc5ccccc5)C4)CC3)C2)c1 [Compound 4]	–
102	–	–	O=C(c1ccc(F)c(F)c1)N1CC(N2CCN([C@H]3CCN(C(=O)c4cc(C(F)(F)F)cc(C(F)(F)F)c4)[C@H](Cc4ccccc4)C3)CC2)C1 [Compound 5]	–
72.4	3470	–	Cc1cc(C(=O)N2CC(N3CCN([C@H]4CCN(C(=O)c5cc(C(F)(F)F)cc(C(F)(F)F)c5)[C@H](Cc5ccccc5)C4)CC3)C2)n(C)n1 [Compound 7]	–
63.1	–	–	O=C(C1CC1)N1CC(N2CCN([C@H]3CCN(C(=O)c4cc(C(F)(F)F)cc(C(F)(F)F)c4)[C@H](Cc4ccccc4)C3)CC2)C1 [Compound 10]	–
10.5	≥ 10000	≥ 10000	O=C(C1CCOC1)N1CC(N2CCN(C3CCN(C(=O)c4cc(C(F)(F)F)cc(C(F)(F)F)c4)C(Cc4ccccc4)C3)CC2)C1 (stereo not drawn) [Compound 11]	–
43.7	≥ 10000	≥ 10000	O=C([C@H]1CCOC1)N1CC(N2CCN([C@H]3CCN(C(=O)c4cc(C(F)(F)F)cc(C(F)(F)F)c4)[C@H](Cc4ccccc4)C3)CC2)C1 [Compound 12]	–
10.5	4370	≥ 10000	O=C(c1ccccc1Cl)N1CC(N2CCN([C@H]3CCN(C(=O)c4cc(C(F)(F)F)cc(C(F)(F)F)c4)[C@H](Cc4ccccc4)C3)CC2)C1 [Compound 18]	–
41.7	8130	≥ 10000	O=C(c1cnccn1)N1CC(N2CCN([C@H]3CCN(C(=O)c4cc(C(F)(F)F)cc(C(F)(F)F)c4)[C@H](Cc4ccccc4)C3)CC2)C1 [Compound 20]	–
